Values joined by “and” are separate entries in the source; they are usually repeats but may differ in a detail not shown here. Equal values may be shown once.
How the values were obtained:
[1] = molecular target: T1, AthDHAD (Arabidopsis thaliana, UniProt Q9LIR4); experiment: In vitro activity and AA inhibition assay of AthDHAD; assay type: biochemical, A. thaliana; details: AthDHAD wild type
T1 construct: made in house; host or cells: E. coli BL21(DE3)
T1 sequence (Q9LIR4 35-608): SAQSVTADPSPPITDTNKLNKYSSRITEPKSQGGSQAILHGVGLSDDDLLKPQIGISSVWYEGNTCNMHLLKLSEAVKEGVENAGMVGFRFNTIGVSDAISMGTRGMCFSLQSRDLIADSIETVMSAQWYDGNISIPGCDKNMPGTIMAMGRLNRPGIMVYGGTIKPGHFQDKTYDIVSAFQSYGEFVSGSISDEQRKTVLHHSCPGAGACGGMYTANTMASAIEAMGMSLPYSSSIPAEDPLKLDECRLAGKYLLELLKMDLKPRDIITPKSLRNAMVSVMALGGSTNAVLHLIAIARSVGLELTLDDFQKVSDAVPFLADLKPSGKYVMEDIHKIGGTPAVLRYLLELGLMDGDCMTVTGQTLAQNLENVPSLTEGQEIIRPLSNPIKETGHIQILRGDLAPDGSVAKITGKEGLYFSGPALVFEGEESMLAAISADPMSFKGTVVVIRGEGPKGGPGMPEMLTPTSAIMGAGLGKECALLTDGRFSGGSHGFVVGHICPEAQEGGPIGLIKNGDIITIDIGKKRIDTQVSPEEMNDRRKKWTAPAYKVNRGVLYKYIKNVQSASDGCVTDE
Procedure: (§1) In vitro activity assays were carried out in 25 μl of reaction mixture containing A10 buffer without NaCl. The Michaelis–Menten constants (kcat, KM) for each enzyme were calculated by fitting the following formula to the observed reaction rate. V=VmaxS/KM+S Vmax=kcatE0
(§2) The inhibition percentages of AA on AthDHADs were determined using in vitro biochemical assays and calculated with the following equation:
(§3) Inhibition percentage = 100 − 100 × (initial reaction rate with AA/initial reaction rate without AA)
(§4) The inhibition assays were conducted with either 10 mM (±)-sodium-α,β-dihydroxyisovalerate (DHI) or 10 mM (±)-sodium-α,β-dihydroxymethylvalerate hydrate (DHMV), along with 0.5 μM of purified AthDHAD enzyme or its mutants. The reaction was initiated by adding the corresponding enzymes, followed by a 20-min incubation at 28°C. To halt the reactions, an equal volume of acetonitrile was introduced. Subsequently, approximately 0.04 volumes of 100 mM phenylhydrazine were added to facilitate the derivatization of the product, either 2-keto-isovalerate or 2-keto-3-methylvalerate, at room temperature for 30 min. For HPLC analysis, 10 μl of the reaction mixture was utilized.

[2] = molecular target: T2, AthDHAD-I177L (Arabidopsis thaliana, UniProt Q9LIR4, I211L); experiment: In vitro activity and AA inhibition assay of AthDHAD mutant I177L; assay type: biochemical, A. thaliana
T2 construct: made in house; host or cells: E. coli BL21(DE3)
Procedure: as §1, §2, §3, §4

[3] = molecular target: T3, AthDHAD-I177F (Arabidopsis thaliana, UniProt Q9LIR4, I211F); experiment: In vitro activity and AA inhibition assay of AthDHAD mutant I177F; assay type: biochemical, A. thaliana
T3 construct: made in house; host or cells: E. coli BL21(DE3)
Procedure: as §1, §2, §3, §4

[4] = molecular target: T4, AthDHAD-V178L (Arabidopsis thaliana, UniProt Q9LIR4, V212L); experiment: In vitro activity and AA inhibition assay of AthDHAD mutant V178L; assay type: biochemical, A. thaliana; details: DHI as substrate (10 mM), 0.5 μM enzyme
T4 construct: made in house; host or cells: E. coli BL21(DE3)
Procedure: as §1, §2, §3, §4

[5] = molecular target: T5, AthDHAD-V178I (Arabidopsis thaliana, UniProt Q9LIR4, V212I); experiment: In vitro activity and AA inhibition assay of AthDHAD mutant V178I; assay type: biochemical, A. thaliana; details: DHI as substrate (10 mM), 0.5 μM enzyme
T5 construct: made in house; host or cells: E. coli BL21(DE3)
Procedure: as §1, §2, §3, §4

[6] = molecular target: T6, AthDHAD-V178F (Arabidopsis thaliana, UniProt Q9LIR4, V212F); experiment: In vitro activity and AA inhibition assay of AthDHAD mutant V178F; assay type: biochemical, A. thaliana; details: DHI as substrate (10 mM), 0.5 μM enzyme
T6 construct: made in house; host or cells: E. coli BL21(DE3)
Procedure: as §1, §2, §3, §4

[7] = molecular target: T7, AthDHAD-V178W (Arabidopsis thaliana, UniProt Q9LIR4, V212W); experiment: In vitro activity and AA inhibition assay of AthDHAD mutant V178W; assay type: biochemical, A. thaliana; details: DHI as substrate (10 mM), 0.5 μM enzyme
T7 construct: made in house; host or cells: E. coli BL21(DE3)
Procedure: as §1, §2, §3, §4

[8] = molecular target: T8, AthDHAD-V496L (Arabidopsis thaliana, UniProt Q9LIR4, V530L); experiment: In vitro activity and AA inhibition assay of AthDHAD mutant V496L; assay type: biochemical, A. thaliana; details: DHI as substrate (10 mM), 0.5 μM enzyme
T8 construct: made in house; host or cells: E. coli BL21(DE3)
Procedure: as §1, §2, §3, §4

[9] = molecular target: T9, AthDHAD-V496I (Arabidopsis thaliana, UniProt Q9LIR4, V530I); experiment: In vitro activity and AA inhibition assay of AthDHAD mutant V496I; assay type: biochemical, A. thaliana
T9 construct: made in house; host or cells: E. coli BL21(DE3)
Procedure: as §1, §2, §3, §4

[10] = molecular target: T10, AthDHAD-V496F (Arabidopsis thaliana, UniProt Q9LIR4, V530F); experiment: In vitro activity and AA inhibition assay of AthDHAD mutant V496F; assay type: biochemical, A. thaliana
T10 construct: made in house; host or cells: E. coli BL21(DE3)
Procedure: as §1, §2, §3, §4

[11] = molecular target: T11, AthDHAD-V497L (Arabidopsis thaliana, UniProt Q9LIR4, V531L); experiment: In vitro activity and AA inhibition assay of AthDHAD mutant V497L; assay type: biochemical, A. thaliana
T11 construct: made in house; host or cells: E. coli BL21(DE3)
Procedure: as §1, §2, §3, §4

[12] = molecular target: T12, AthDHAD-V497I (Arabidopsis thaliana, UniProt Q9LIR4, V531I); experiment: In vitro activity and AA inhibition assay of AthDHAD mutant V497I; assay type: biochemical, A. thaliana; details: DHI as substrate (10 mM), 0.5 μM enzyme
T12 construct: made in house; host or cells: E. coli BL21(DE3)
Procedure: as §1, §2, §3, §4

[13] = molecular target: T13, AthDHAD-V497F (Arabidopsis thaliana, UniProt Q9LIR4, V531F); experiment: In vitro activity and AA inhibition assay of AthDHAD mutant V497F; assay type: biochemical, A. thaliana; details: DHI as substrate (10 mM), 0.5 μM enzyme
T13 construct: made in house; host or cells: E. coli BL21(DE3)
Procedure: as §1, §2, §3, §4

[14] = molecular target: T14, AthDHAD-I177L-V496L (Arabidopsis thaliana, UniProt Q9LIR4, I211L/V530L); experiment: In vitro activity and AA inhibition assay of AthDHAD double mutant I177L/V496L; assay type: biochemical, A. thaliana
T14 construct: made in house; host or cells: E. coli BL21(DE3)
Procedure: as §1, §2, §3, §4

[15] = molecular target: T15, AthDHAD-I177L-V497L (Arabidopsis thaliana, UniProt Q9LIR4, I211L/V531L); experiment: In vitro activity and AA inhibition assay of AthDHAD double mutant I177L/V497L; assay type: biochemical, A. thaliana
T15 construct: made in house; host or cells: E. coli BL21(DE3)
Procedure: as §1, §2, §3, §4

[16] = molecular target: T16, AthDHAD-V178L-V497L (Arabidopsis thaliana, UniProt Q9LIR4, V212L/V531L); experiment: In vitro activity and AA inhibition assay of AthDHAD double mutant V178L/V497L; assay type: biochemical, A. thaliana
T16 construct: made in house; host or cells: E. coli BL21(DE3)
Procedure: as §1, §2, §3, §4

[17] = system: A. thaliana transgenic lines with mutant AthDHAD (V178L and V496L); experiment: Growth inhibition of AA on transgenic A. thaliana with mutant AthDHAD (V178L and V496L); assay type: in vivo; details: 100 μM AA on Murashige and Skoog medium, day 7; V178L and V496L lines compared to line expressing AstD
Excerpt: The gene block containing DHAD variants, and the 2XFLAG-tag was synthesized and then cloned into modified pEG302 vector using Gateway LR Clonase II Enzyme Mix (Thermo Fisher Scientific). Ubiquitin-10 promoter was used to drive the expression of DHAD variants. The construct was electrotransformed into Agrobacterium tumefaciens strain Agl0 and then transformed into A. thaliana rdr6-15 in which the transgene silencing pathway is blocked. Positive transgenic plants were selected using the hygromycin B and were tested for survival in the presence of AA.
A. thaliana seeds were sterilized with 70% ethanol and sown on Murashige and Skoog medium supplemented with either ethanol control or 100 μM AA. Photos were taken, and fresh weights were measured at day 7.

[18] = molecular target: T1, AthDHAD; details: cited from earlier work
[19] = system: AteDHAD; set-up: method as in PMID 29995859; details: housekeeping DHAD from A. terreus (XP_001208445.1); cited from earlier work
[20] = system: AstD; details: cited from earlier work
[21] = system: A. thaliana; set-up: method as in PMID 29995859; details: A. thaliana as a model plant organism; cited from earlier work
[22] = system: Transgenic A. thaliana expressing AstD; set-up: method as in PMID 29995859; details: cited from earlier work

T5 sequence (Q9LIR4 35-608 V212I): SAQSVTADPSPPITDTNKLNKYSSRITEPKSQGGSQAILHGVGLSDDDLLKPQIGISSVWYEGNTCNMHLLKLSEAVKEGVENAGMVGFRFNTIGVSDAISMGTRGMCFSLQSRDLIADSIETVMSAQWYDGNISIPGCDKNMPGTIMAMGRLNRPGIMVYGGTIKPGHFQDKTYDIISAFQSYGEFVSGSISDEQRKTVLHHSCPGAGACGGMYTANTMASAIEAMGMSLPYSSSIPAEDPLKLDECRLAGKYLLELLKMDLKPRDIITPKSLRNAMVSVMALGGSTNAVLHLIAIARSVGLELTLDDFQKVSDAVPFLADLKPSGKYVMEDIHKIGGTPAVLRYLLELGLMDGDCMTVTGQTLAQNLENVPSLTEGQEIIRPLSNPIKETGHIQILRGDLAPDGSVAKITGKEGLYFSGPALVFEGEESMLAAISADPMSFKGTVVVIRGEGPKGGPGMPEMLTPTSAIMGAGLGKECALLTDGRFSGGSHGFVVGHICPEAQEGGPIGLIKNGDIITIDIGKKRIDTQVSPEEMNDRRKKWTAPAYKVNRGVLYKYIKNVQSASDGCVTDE
T12 sequence (Q9LIR4 35-608 V531I): as the sequence (Q9LIR4 35-608 V212I) above, with I178V, V497I counted along it
T4 sequence (Q9LIR4 35-608 V212L): as the sequence (Q9LIR4 35-608 V212I) above, with I178L counted along it
T8 sequence (Q9LIR4 35-608 V530L): as the sequence (Q9LIR4 35-608 V212I) above, with I178V, V496L counted along it
T7 sequence (Q9LIR4 35-608 V212W): as the sequence (Q9LIR4 35-608 V212I) above, with I178W counted along it
T13 sequence (Q9LIR4 35-608 V531F): as the sequence (Q9LIR4 35-608 V212I) above, with I178V, V497F counted along it
T6 sequence (Q9LIR4 35-608 V212F): as the sequence (Q9LIR4 35-608 V212I) above, with I178F counted along it
T3 sequence (Q9LIR4 35-608 I211F): as the sequence (Q9LIR4 35-608 V212I) above, with I177F, I178V counted along it
T16 sequence (Q9LIR4 35-608 V212L/V531L): as the sequence (Q9LIR4 35-608 V212I) above, with I178L, V497L counted along it
T2 sequence (Q9LIR4 35-608 I211L): as the sequence (Q9LIR4 35-608 V212I) above, with I177L, I178V counted along it
T11 sequence (Q9LIR4 35-608 V531L): as the sequence (Q9LIR4 35-608 V212I) above, with I178V, V497L counted along it
T10 sequence (Q9LIR4 35-608 V530F): as the sequence (Q9LIR4 35-608 V212I) above, with I178V, V496F counted along it
T14 sequence (Q9LIR4 35-608 I211L/V530L): as the sequence (Q9LIR4 35-608 V212I) above, with I177L, I178V, V496L counted along it
T15 sequence (Q9LIR4 35-608 I211L/V531L): as the sequence (Q9LIR4 35-608 V212I) above, with I177L, I178V, V497L counted along it
T9 sequence (Q9LIR4 35-608 V530I): as the sequence (Q9LIR4 35-608 V212I) above, with I178V, V496I counted along it

For `CC(C)=C1CCC23COC(C2)C(O)(C(=O)O)CCC13` (centres unmarked) [AA, aspterric acid], the IC50 ([1]; DHI as substrate (10 mM), 0.5 μM enzyme) was 250 nM and 249 nM, the IC50 [2] was 50 ± 1 nM and the IC50 [3] was 37000 ± 8770 nM. For the same molecule, the IC50 [4] was 970 nM and 974 nM, the IC50 [5] was 430 nM and 431 nM and the IC50 [6] was 6000 nM and 5990 nM. The IC50 [7] was 2340 nM, the IC50 [8] was 820 nM and 824 nM and the IC50 [9] was 1140 ± 52 nM. For the same molecule, the IC50 [10] was 2940 nM, the IC50 [11] was 59 nM and the IC50 [12] was 73.3 nM and 73 nM. For the same molecule, the IC50 [13] was 1250 nM, the IC50 [14] was 309 ± 74 nM and the IC50 [15] was 28 nM. For the same molecule, the IC50 [16] was 396 ± 11 nM, the “growth of transgenic plants in the presence of AA” value [17] was “not able to rescue the growth of the plants” and the Ki ([18]; binding of AA to AthDHAD as a competitive inhibitor) was roughly 300 nM. For the same molecule, the mode of inhibition ([18]; housekeeping DHAD from A. thaliana (AT3G23940)) was “competitive inhibitor”, the mode of inhibition [19] was “competitive inhibitor” and the “AA resistance observed in AstD” value ([20]; reported) was “over 8 mM”. The “sensitivity of AstD to AA” value ([20]; within the solubility limit (8 mM)) was “completely insensitive”, the “herbicidal effect in spray experiments” value [21] was “effective as an herbicide” and the “resistance of transgenic plants to AA” value [22] was “strong resistance”.
Work on `CC[C@@](C)(O)[C@@H](O)C(=O)O` (racemic) [DHMV, (±)-sodium-α,β-dihydroxymethylvalerate hydrate, reference compound] yielded a Km ([1]; substrate DHMV) of 4 ± 0.45 mM and a kcat ([1]; substrate DHMV) of 6.50 ± 0.32 s⁻¹.
